# Biological target: T1, TYK2 (Homo sapiens, UniProt P29597)
# T1 construct: Degradation of TYK2 in cells was quantitatively measured using Meso Scale Discovery (MSD) technology; endogenous in cells; host or cells: OCI-LY10
# Experiment: TYK2 MSD degradation in OCI-LY10 cells
# Assay type: cell-based
# Details: TYK2 degradation in OCI-LY10 cells, 4 to 24 hours incubation
# Procedure, shortened: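 OCI-LY10 cells were treated with 9-dose 1:3 series (top 1 to 10 μM final) for 4 to 24 hours at 37° C. Lysate TYK2 quantified by MSD sandwich immunoassay; DC50 and Dmax from four-parameter inhibitor vs. response fit.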
# T1 sequence (P29597 whole entry): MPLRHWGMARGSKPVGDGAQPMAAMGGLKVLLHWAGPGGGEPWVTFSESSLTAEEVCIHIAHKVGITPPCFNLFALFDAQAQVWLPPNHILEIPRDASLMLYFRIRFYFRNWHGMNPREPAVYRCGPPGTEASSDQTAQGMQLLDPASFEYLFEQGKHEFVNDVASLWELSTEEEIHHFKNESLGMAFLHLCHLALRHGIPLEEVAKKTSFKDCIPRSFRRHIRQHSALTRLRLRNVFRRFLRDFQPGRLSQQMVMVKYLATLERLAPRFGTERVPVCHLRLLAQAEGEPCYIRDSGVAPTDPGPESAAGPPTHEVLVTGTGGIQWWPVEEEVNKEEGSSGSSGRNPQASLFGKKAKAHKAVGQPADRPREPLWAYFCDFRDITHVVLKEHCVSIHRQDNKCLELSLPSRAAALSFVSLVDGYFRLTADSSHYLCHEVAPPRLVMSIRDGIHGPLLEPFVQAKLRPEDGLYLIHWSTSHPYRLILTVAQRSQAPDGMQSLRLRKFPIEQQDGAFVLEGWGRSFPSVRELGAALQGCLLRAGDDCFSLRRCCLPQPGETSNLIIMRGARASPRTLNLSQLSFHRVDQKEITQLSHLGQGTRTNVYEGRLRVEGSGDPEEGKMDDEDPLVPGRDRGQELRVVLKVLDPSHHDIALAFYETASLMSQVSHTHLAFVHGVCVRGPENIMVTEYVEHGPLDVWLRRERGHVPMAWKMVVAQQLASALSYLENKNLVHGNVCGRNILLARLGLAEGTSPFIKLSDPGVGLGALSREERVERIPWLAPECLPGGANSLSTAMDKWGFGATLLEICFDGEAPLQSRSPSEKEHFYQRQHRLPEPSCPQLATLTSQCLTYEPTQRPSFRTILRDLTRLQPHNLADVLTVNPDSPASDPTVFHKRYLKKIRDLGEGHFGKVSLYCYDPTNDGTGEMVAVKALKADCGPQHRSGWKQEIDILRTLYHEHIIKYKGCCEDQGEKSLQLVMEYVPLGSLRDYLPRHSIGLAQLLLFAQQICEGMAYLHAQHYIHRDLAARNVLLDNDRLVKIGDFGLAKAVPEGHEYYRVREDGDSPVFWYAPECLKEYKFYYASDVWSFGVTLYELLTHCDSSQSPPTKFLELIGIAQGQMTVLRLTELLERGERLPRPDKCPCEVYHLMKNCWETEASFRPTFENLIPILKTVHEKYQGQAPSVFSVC
row,SMILES,TYK2 MSD OCI-LY10 Dmax %
1,CNc1cc(N2CCc3c(-c4ccc(CN5CCC(N6CCN(c7ccc(C8CCC(=O)NC8=O)c(Cl)c7)CC6)C(F)(F)C5)cn4)cccc32)nn2c(C(=O)N[C@H]3C[C@H]3F)cnc12 (some centres unmarked) [I-83],D (D (<50%))
2,CNc1cc(N2CCc3c(N4CCN(C5CC6(CCN(C(=O)c7ccc(Cl)c(N8CCC(=O)NC8=O)c7)CC6)C5)CC4)cccc32)nn2c(C(=O)N[C@@H]3C[C@@H]3F)cnc12 [I-283],D (D (<50%))
3,CNc1cc(-c2ccc(-c3ccc(CN4CC5(CCN(C(=O)c6ccc(Cl)c(N7CCC(=O)NC7=O)c6)CC5(F)F)C4)cn3)cc2)nn2c(C(=O)N[C@@H]3C[C@@H]3F)cnc12 [I-880],B (B (90 to >75%))
4,CNc1cc(N2CC3(CCN(C4CCN(c5cccc6c5n(C)c(=O)n6C5CCC(=O)NC5=O)CC4)CC3)c3ccccc32)nn2c(C(=O)NC3CC3)cnc12 (centres unmarked) [I-23],D (D (<50%))
5,CNc1cc(N2CCc3c(CN4CCC5(CC4)CCN(C4CCN(C(=O)c6ccc(Cl)c(N7CCC(=O)NC7=O)c6)CC4)CC5(F)F)cccc32)nn2c(C(=O)N[C@@H]3C[C@@H]3F)cnc12 [I-833],B (B (90 to >75%))
6,CNC(=O)c1cnc(Nc2ccc(C(=O)NCCOCCOCCOCCN(C(=O)C3CCCN(c4cncc5ccccc45)C3)c3ccc(=O)n(CC(=O)O)c3)cn2)cc1Nc1cccc(-c2ncccn2)c1OC (centres unmarked) [I-918],D (D (<50%))
7,CNc1cc(N2CCc3c(CN4CCC(N5CCC6(CCN(C(=O)c7cc(N8CCC(=O)NC8=O)c(C)cc7F)CC6)CC5)C(F)(F)C4)cccc32)nn2c(C(=O)N[C@@H]3C[C@@H]3F)cnc12 (some centres unmarked) [I-853],A (A (>90%))
8,CNc1cc(N2CCc3c(-c4ccc(CN5CCC6(CCN(C(=O)c7ccc(Cl)c(N8CCC(=O)NC8=O)c7)CC6)C(F)(F)C5)cn4)cccc32)nn2c(C(=O)NC34CC(C3)C4)cnc12 [I-851],C (C (75 to 50%))
9,CNc1cc(N2CCc3c(CN4CC[C@H](N5CCC6(CCN(C(=O)c7cc(Cl)c(Cl)c(N8CCC(=O)NC8=O)c7)CC6)CC5)C(F)(F)C4)cccc32)nn2c(C(=O)N[C@@H]3CC[C@H]3OC)cnc12 [I-1146],A (A (>90%))
10,CNc1cc(N2CCc3c(-c4ccc(CN5CCC(N6CCN(c7ccc8c(c7F)n(C)c(=O)n8C7CCC(=O)NC7=O)CC6)C(F)(F)C5)cn4)cccc32)nn2c(C(=O)NC3CC3)cnc12 (centres unmarked) [I-69],B (B (90 to >75%))
11,CNc1cc(N2CCc3c(-c4ccc(CN5CC6(CCN(Cc7ccc(Cl)c(N8CCC(=O)NC8=O)c7)CC6(F)F)C5)cn4)cccc32)nn2c(C(=O)N[C@@H]3C[C@@H]3F)cnc12 [I-369],D (D (<50%))
12,CNc1cc(N2CCc3c(CN4CCC(N5CC6(CCN(C(=O)c7cc(Cl)c(C)c(N8CCC(=O)NC8=O)c7)CC6)C5)C(F)(F)C4)cccc32)nn2c(C(=O)N[C@@H]3CC[C@H]3OC)cnc12 (some centres unmarked) [I-1068],A (A (>90%))
13,CNc1cc(N2CCc3c(C4CCCN(CC5CC6(C5)CN(c5ccc7c(c5)n(C)c(=O)n7C5CCC(=O)NC5=O)C6)C4)cccc32)nn2c(C(=O)NC3CC3)cnc12 (centres unmarked) [I-59],D (D (<50%))
14,CNc1cc(N2CCc3c(-c4ncc(C(=O)N5CC6(CCN(C(=O)c7cc(C)c(Cl)c(N8CCC(=O)NC8=O)c7)CC6(F)F)C5)cc4F)cccc32)nn2c(C(=O)N[C@@H]3CC[C@H]3OC)cnc12 [I-1139],A (A (>90%))
15,CNc1cc(N2CCc3c(-c4ncc(CN5CC6(CCN(C(=O)c7cc(N8CCC(=O)NC8=O)c(OC)cc7C)CC6(F)F)C5)cc4F)cccc32)nn2c(C(=O)N[C@@H]3CC[C@H]3OC)cnc12 [I-1135],A (A (>90%))
16,CNc1cc(N2CCc3c(-c4ccc(N5CCN(C(=O)c6ccc(Cl)c(N7CCC(=O)NC7=O)c6)CC5)cn4)cccc32)nn2c(C(=O)N[C@@H]3C[C@@H]3F)cnc12 [I-90],D (D (<50%))
17,CNc1cc(-c2ccc(N3CCN(CC4CC5(CCN(C(=O)c6ccc(Cl)c(N7CCC(=O)NC7=O)c6)CC5)C4)CC3)cc2)nn2c(C(=O)N[C@@H]3C[C@@H]3F)cnc12 [I-889],D (D (<50%))
18,CNc1cc(N2CCc3c(-c4ccc(CN5CC6(CCN(Cc7ccc(N8CCC(=O)NC8=O)c(Cl)c7)CC6(F)F)C5)cn4)cccc32)nn2c(C(=O)N[C@H]3C[C@H]3F)cnc12 [I-87],D (D (<50%))
19,CNc1cc(N2CCc3c(N4CCN(CCC5CCN(c6ccc7c(c6)n(C)c(=O)n7C6CCC(=O)NC6=O)CC5)CC4)cccc32)nn2c(C(=O)NC3CC3)cnc12 (centres unmarked) [I-40],D (D (<50%))

# Same assay, conditions: TYK2 degradation in OCI-LY10 cells, 4 to 24 hours incubation, read-out: TYK2 MSD OCI-LY10 Rel-DC50
row,SMILES,DC50
1,CNc1cc(N2CCc3c(-c4ccc(CN5CCC(N6CCN(c7ccc(C8CCC(=O)NC8=O)c(Cl)c7)CC6)C(F)(F)C5)cn4)cccc32)nn2c(C(=O)N[C@H]3C[C@H]3F)cnc12 (some centres unmarked) [I-83],< 10 nM
2,CNc1cc(N2CCc3c(N4CCN(C5CC6(CCN(C(=O)c7ccc(Cl)c(N8CCC(=O)NC8=O)c7)CC6)C5)CC4)cccc32)nn2c(C(=O)N[C@@H]3C[C@@H]3F)cnc12 [I-283],> 100 nM
3,CNc1cc(-c2ccc(-c3ccc(CN4CC5(CCN(C(=O)c6ccc(Cl)c(N7CCC(=O)NC7=O)c6)CC5(F)F)C4)cn3)cc2)nn2c(C(=O)N[C@@H]3C[C@@H]3F)cnc12 [I-880],< 10 nM
4,CNc1cc(N2CC3(CCN(C4CCN(c5cccc6c5n(C)c(=O)n6C5CCC(=O)NC5=O)CC4)CC3)c3ccccc32)nn2c(C(=O)NC3CC3)cnc12 (centres unmarked) [I-23],> 100 nM
5,CNc1cc(N2CCc3c(CN4CCC5(CC4)CCN(C4CCN(C(=O)c6ccc(Cl)c(N7CCC(=O)NC7=O)c6)CC4)CC5(F)F)cccc32)nn2c(C(=O)N[C@@H]3C[C@@H]3F)cnc12 [I-833],< 10 nM
6,CNC(=O)c1cnc(Nc2ccc(C(=O)NCCOCCOCCOCCN(C(=O)C3CCCN(c4cncc5ccccc45)C3)c3ccc(=O)n(CC(=O)O)c3)cn2)cc1Nc1cccc(-c2ncccn2)c1OC (centres unmarked) [I-918],> 100 nM
7,CNc1cc(N2CCc3c(CN4CCC(N5CCC6(CCN(C(=O)c7cc(N8CCC(=O)NC8=O)c(C)cc7F)CC6)CC5)C(F)(F)C4)cccc32)nn2c(C(=O)N[C@@H]3C[C@@H]3F)cnc12 (some centres unmarked) [I-853],< 1 nM
8,CNc1cc(N2CCc3c(-c4ccc(CN5CCC6(CCN(C(=O)c7ccc(Cl)c(N8CCC(=O)NC8=O)c7)CC6)C(F)(F)C5)cn4)cccc32)nn2c(C(=O)NC34CC(C3)C4)cnc12 [I-851],10 to 100 nM
9,CNc1cc(N2CCc3c(CN4CC[C@H](N5CCC6(CCN(C(=O)c7cc(Cl)c(Cl)c(N8CCC(=O)NC8=O)c7)CC6)CC5)C(F)(F)C4)cccc32)nn2c(C(=O)N[C@@H]3CC[C@H]3OC)cnc12 [I-1146],< 1 nM
10,CNc1cc(N2CCc3c(-c4ccc(CN5CCC(N6CCN(c7ccc8c(c7F)n(C)c(=O)n8C7CCC(=O)NC7=O)CC6)C(F)(F)C5)cn4)cccc32)nn2c(C(=O)NC3CC3)cnc12 (centres unmarked) [I-69],< 10 nM
11,CNc1cc(N2CCc3c(-c4ccc(CN5CC6(CCN(Cc7ccc(Cl)c(N8CCC(=O)NC8=O)c7)CC6(F)F)C5)cn4)cccc32)nn2c(C(=O)N[C@@H]3C[C@@H]3F)cnc12 [I-369],> 100 nM
12,CNc1cc(N2CCc3c(CN4CCC(N5CC6(CCN(C(=O)c7cc(Cl)c(C)c(N8CCC(=O)NC8=O)c7)CC6)C5)C(F)(F)C4)cccc32)nn2c(C(=O)N[C@@H]3CC[C@H]3OC)cnc12 (some centres unmarked) [I-1068],< 1 nM
13,CNc1cc(N2CCc3c(C4CCCN(CC5CC6(C5)CN(c5ccc7c(c5)n(C)c(=O)n7C5CCC(=O)NC5=O)C6)C4)cccc32)nn2c(C(=O)NC3CC3)cnc12 (centres unmarked) [I-59],< 1 nM
14,CNc1cc(N2CCc3c(-c4ncc(C(=O)N5CC6(CCN(C(=O)c7cc(C)c(Cl)c(N8CCC(=O)NC8=O)c7)CC6(F)F)C5)cc4F)cccc32)nn2c(C(=O)N[C@@H]3CC[C@H]3OC)cnc12 [I-1139],< 1 nM
15,CNc1cc(N2CCc3c(-c4ncc(CN5CC6(CCN(C(=O)c7cc(N8CCC(=O)NC8=O)c(OC)cc7C)CC6(F)F)C5)cc4F)cccc32)nn2c(C(=O)N[C@@H]3CC[C@H]3OC)cnc12 [I-1135],< 1 nM
16,CNc1cc(N2CCc3c(-c4ccc(N5CCN(C(=O)c6ccc(Cl)c(N7CCC(=O)NC7=O)c6)CC5)cn4)cccc32)nn2c(C(=O)N[C@@H]3C[C@@H]3F)cnc12 [I-90],< 10 nM
17,CNc1cc(-c2ccc(N3CCN(CC4CC5(CCN(C(=O)c6ccc(Cl)c(N7CCC(=O)NC7=O)c6)CC5)C4)CC3)cc2)nn2c(C(=O)N[C@@H]3C[C@@H]3F)cnc12 [I-889],> 100 nM
18,CNc1cc(N2CCc3c(-c4ccc(CN5CC6(CCN(Cc7ccc(N8CCC(=O)NC8=O)c(Cl)c7)CC6(F)F)C5)cn4)cccc32)nn2c(C(=O)N[C@H]3C[C@H]3F)cnc12 [I-87],< 10 nM
19,CNc1cc(N2CCc3c(N4CCN(CCC5CCN(c6ccc7c(c6)n(C)c(=O)n7C6CCC(=O)NC6=O)CC5)CC4)cccc32)nn2c(C(=O)NC3CC3)cnc12 (centres unmarked) [I-40],> 100 nM
